{
  "source": "paper PMC4627800",
  "about": "“Allelic Variation of Cytochrome P450s Drives Resistance to Bednet Insecticides in a Major Malaria Vector” (PLoS Genetics, 2015)",
  "key": {"[1]": {"molecular_target": "Asn^384Ser_CYP6P9b (Anopheles funestus, UniProt B5AII7, N384S)", "assay": "Kinetics of permethrin metabolism by CYP6P9b mutants", "type": "biochemical", "description": "(§1) Reactions were performed in triplicates both for +NADPH (experimental tubes) and–NADPH (negative control). K m and V max were established from the plot of substrate concentrations against the initial velocities and fitting of the data to the Michaelis-Menten module using the least squares non-linear regression, as described in the GraphPad Prism 6.03 Software (GraphPad Inc., La Jolla, CA, USA).\n(§2) In addition, fluorescent probes were also screened to establish differences in the O-dealkylation activity of the mutants compared with the wild type enzyme. All in vitro and kinetic analyses were conducted as described above. However, as different mutants expressed with varying concentrations all assays were conducted within linear range, with the amount of enzyme and time which produced highest activities."}, "[2]": {"molecular_target": "Asp^335Glu_CYP6P9b (Anopheles funestus, UniProt B5AII7, D335E)", "assay": "Kinetics of permethrin metabolism by CYP6P9b mutants", "type": "biochemical", "description": "as §1, §2"}, "[3]": {"molecular_target": "Pro^401Ala_CYP6P9b (Anopheles funestus, UniProt B5AII7, P401A)", "assay": "Kinetics of permethrin metabolism by CYP6P9b mutants", "type": "biochemical", "description": "as §1, §2"}, "[4]": {"molecular_target": "Val^109Ile_CYP6P9b (Anopheles funestus, UniProt B5AII7, V109I)", "assay": "Kinetics of permethrin metabolism by CYP6P9b mutants", "type": "biochemical", "description": "as §1, §2"}, "[5]": {"system": "CYP6M2", "set-up": "method as in ref [5] (S1 Text)", "conditions": "cited from earlier work"}},
  "note": "Marks after values point to notes of the source that are not given here.",
  "data": [
    {"smiles": "CC1(C)C(C=C(Cl)Cl)C1C(=O)OCc1cccc(Oc2ccccc2)c1", "note": "(stereo not drawn) [permethrin]", "values": [
      {"measurement": "Km", "setting": "[1]", "value": "17.9 ± 0.87", "unit": "µM"},
      {"measurement": "Km of mutant, fold of Asp^335Glu mutant", "setting": "[1]", "value": 4, "unit": "fold"},
      {"measurement": "Km of mutant, fold of wrMALCYP6P9b", "setting": "[1]", "value": 2, "unit": "fold"},
      {"measurement": "Kcat", "setting": "[1]; Asn^384Ser_CYP6P9b, mean ± S.E.M.", "value": "0.87±0.08*** min^-1"},
      {"measurement": "Kcat of wrMALCYP6P9b, fold of mutant", "setting": "[1]; wrMALCYP6P9b vs Asn^384Ser", "value": 9, "unit": "fold"},
      {"measurement": "catalytic efficiency of wrMALCYP6P9b, fold of mutant", "setting": "[1]; wrMALCYP6P9b vs Asn^384Ser", "value": 20, "unit": "fold"},
      {"measurement": "Km", "setting": "[2]", "value": "5.19 ± 1.89", "unit": "µM"},
      {"measurement": "Kcat", "setting": "[2]; Asp^335Glu_CYP6P9b, mean ± S.E.M.", "value": "0.98±0.12*** min^-1"},
      {"measurement": "Kcat of wrMALCYP6P9b, fold of mutant", "setting": "[2]; wrMALCYP6P9b vs Asp^335Glu", "value": 8, "unit": "fold"},
      {"measurement": "catalytic efficiency of wrMALCYP6P9b, fold of mutant", "setting": "[2]; wrMALCYP6P9b vs Asp^335Glu", "value": 4, "unit": "fold"},
      {"measurement": "Km", "setting": "[3]", "value": "15.4 ± 6.5", "unit": "µM"},
      {"measurement": "Kcat", "setting": "[3]; Pro^401Ala_CYP6P9b, mean ± S.E.M.", "value": "4.21±0.96* min^-1"},
      {"measurement": "catalytic efficiency of wrMALCYP6P9b, fold of mutant", "setting": "[3]; wrMALCYP6P9b vs Pro^401Ala", "value": 3, "unit": "fold"},
      {"measurement": "Km", "setting": "[4]", "value": "20.5 ± 1.35", "unit": "µM"},
      {"measurement": "Km of mutant, fold of Asp^335Glu mutant", "setting": "[4]", "value": 4, "unit": "fold"},
      {"measurement": "Km of mutant, fold of wrMALCYP6P9b", "setting": "[4]", "value": 2, "unit": "fold"},
      {"measurement": "Kcat", "setting": "[4]; Val^109Ile_CYP6P9b, mean ± S.E.M.", "value": "1.35±0.57** min^-1"},
      {"measurement": "Kcat of wrMALCYP6P9b, fold of mutant", "setting": "[4]; wrMALCYP6P9b vs Val^109Ile", "value": 6, "unit": "fold"},
      {"measurement": "catalytic efficiency of wrMALCYP6P9b, fold of mutant", "setting": "[4]; wrMALCYP6P9b vs Val^109Ile", "value": 13, "unit": "fold"},
      {"measurement": "Km", "setting": "[5]; An. gambiae CYP6M2 ref [5] (S1 Text)", "value": 12, "unit": "µM"},
      {"measurement": "catalytic efficiency", "setting": "[5]; Anopheles gambiae CYP6M2 ref [5] (S1 Text)", "value": "~ 0.5 min^-1µM^-1"}
    ]}
  ]
}
